Laboratory results: patent US20070043079A1, “Heterocyclic compound containing nitrogen atom and use thereof” (priority 2003, published 2007)
Counter-ions that a name gives are not always drawn.

Target: T1, human CCR5 (Homo sapiens, UniProt P51681)
T1 construct: expressed in transfected cells
Assay: Inhibition test on the binding of RANTES to CCR5 (RANTES-induced transient increase of Ca ion) in CCR5/CHO cells
Assay type: cell-based
Method: The whole procedures were carried out by preparing gene high expressing cells under basic genetic engineering methods by utilizing conventional methods. Also, as to the methods for the measurement in the present invention, improvement of measurement accuracy and/or modification of measurement sensitivity were adopted in order to evaluate the compound of the present invention. Detailed methods for the experiment are illustrated below.
(1) Isolation of Human CCR5 Genes
Human placental cDNA was prepared using Marathon cDNA amplification kit (Clontech). […]
Thus established human CCR5 stable over-expressing CHO cells (CCR5/CHO cells) were suspended in Ham's F-12 medium containing FBS (10%) and dispensed in […] portions into a 96 well plate. […] Transient increase in the intracellular Ca^2+ concentration induced by the human RANTES was measured using a Ca^2+ detector for 96 well use (Hamamatsu Photonics), and inhibition ration (%) of the test compound was calculated by the following calculation formula. Inhibition ratio=(Ec−Ea)/Ec×100 • Ec: measured value of Ca^2+ transient increase by RANTES • Ea: measured value of Ca^2+ transient increase by RANTES when a test compound was added

T1 sequence (P51681 whole entry): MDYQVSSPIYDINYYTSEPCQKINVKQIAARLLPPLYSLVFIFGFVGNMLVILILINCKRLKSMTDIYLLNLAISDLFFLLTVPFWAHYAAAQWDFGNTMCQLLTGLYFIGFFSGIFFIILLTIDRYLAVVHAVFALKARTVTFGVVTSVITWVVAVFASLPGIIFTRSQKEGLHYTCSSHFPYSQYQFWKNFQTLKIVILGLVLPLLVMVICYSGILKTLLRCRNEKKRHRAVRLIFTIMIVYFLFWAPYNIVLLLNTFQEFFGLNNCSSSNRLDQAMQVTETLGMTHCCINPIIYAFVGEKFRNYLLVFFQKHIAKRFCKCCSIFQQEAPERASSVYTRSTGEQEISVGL

IC50: 4.16 µM
Compound: COc1ccc(CN2CCC(c3ccc(CNC(=O)c4ccc(Cl)cc4)cc3)CC2)cc1OC [Example 1, 4-chloro-N-{4-[1-(3,4-dimethoxybenzyl)piperidin-4-yl]benzyl}benzamide hydrochloride]
